Measured values: article PMC10140954, “Thiolactones and Δ^8,9-Pregnene Steroids from the Marine-Derived Fungus Meira sp. 1210CH-42 and Their α-Glucosidase Inhibitory Activity” (Marine Drugs, 2023)

Target: α-glucosidase
Assay: α-glucosidase inhibition assay (pNPG substrate, absorbance at 405 nm)
Format: biochemical
Conditions: for IC50: 0.1 M PBS pH 7.4, 37 °C, α-glucosidase 0.2 U/mL, 5 mM pNPG, triplicate, read-out: α-Glucosidase inhibitory activity, IC50 (50% inhibitory concentration)
Description: All the assays were carried out under 0.1 M PBS buffer (pH 7.4, Sigma). The samples (10 mM) were dissolved with DMSO (Sigma) and diluted into gradient concentrations with PBS buffer. The pre-reaction mixture consisted of the 130 μL sample with 30 μL α-glucosidase solution (0.2 U/mL, Sigma) and shaken well, then added to a 96-well plate and placed at 37 °C for 10 min in an incubator. Subsequently, 40 μL of 5 mM p-nitrophenyl-α-D-glucopyranoside (pNPG, TCI) was added and further incubated at 37 °C for 20 min. Finally, the α-glucosidase inhibitory activity was determined by measuring the release of […] at 405 nm of the microplate reader. The negative control was prepared by adding PBS buffer instead of the sample in the same way as the test. The blank was prepared by adding PBS buffer instead of pNPG using the same method.

SMILES	IC50 [µM]	α-glucosidase inhibitory activity in words (at a concentration of 400 μM)
CC(=O)N[C@H]1C(=O)SC[C@@H]1C [Compound 2, 2R-acetamide-3R-methyl-thiolactone]	148	
CC(=O)[C@H]1CC[C@H]2C3=C(CC[C@]12C)[C@@]1(C)CC[C@H](O)C[C@@H]1CC3 [Compound 3, Δ^8,9-3β-hydroxy-5α-17-acetyl steroid]	280	
CC(=O)N[C@@H]1C(=O)SC[C@@H]1C [Compound 1, 2S-acetamide-3R-methyl-thiolactone]	> 400	weak inhibitory activity
CC(=O)C1CCC2C3=C(CCC12C)C1(C)CCC(O)CC1CC3 (stereo not drawn) [Compound 4, Δ^8,9-3α-hydroxy-5α-17-acetyl steroid]	86	
